From patent US20040063662A1, “Selenophene anti-tumor agents” (priority 1996, published 2004)

How the values were obtained:
[1] = tested on: SK-OV-3; assay: NCI human tumor cell panel: SK-OV-3 (Ovarian Cancer); format: cell-based; details: SK-OV-3, Ovarian Cancer
[2] = tested on: OVCAR-3; assay: NCI human tumor cell panel: OVCAR-3 (Ovarian Cancer); format: cell-based; details: OVCAR-3, Ovarian Cancer
[3] = tested on: NCI-H522; assay: NCI human tumor cell panel: NCI-H522 (Non-Small Cell Lung Cancer)
[4] = tested on: HT29; assay: NCI human tumor cell panel: HT29 (Colon Cancer); format: cell-based; details: HT-29, HT29, Colon Cancer
[5] = tested on: HCT-15; assay: NCI human tumor cell panel: HCT-15 (Colon Cancer); format: cell-based; details: HCT-15, Colon Cancer
[6] = tested on: PC-3; assay: NCI human tumor cell panel: PC-3 (Prostate Cancer); format: cell-based; details: PC-3, Prostate Cancer
[7] = tested on: KM12; assay: NCI human tumor cell panel: KM12 (Colon Cancer); format: cell-based; details: KM12, Colon Cancer
[8] = tested on: ACHN; assay: NCI human tumor cell panel: ACHN (Renal Cancer); format: cell-based; details: Renal Cancer
[9] = tested on: NCI-H322M; assay: cells; format: cell-based; details: Homo sapiens, Non-Small Cell Lung Cancer
[10] = tested on: SNB-19; assay: NCI human tumor cell panel: SNB-19 (CNS Cancer); format: cell-based; details: SNB-19, CNS Cancer
[11] = tested on: SF-268; assay: NCI human tumor cell panel: SF-268 (CNS Cancer); format: cell-based; details: SF-268, CNS Cancer
[12] = tested on: SK-MEL-28; assay: NCI human tumor cell panel: SK-MEL-28 (Melanoma); format: cell-based; details: SK-MEL-28, Melanoma
[13] = tested on: RXF-393; assay: NCI human tumor cell panel: RXF-393 (Renal Cancer); format: cell-based; details: RXF-393, Renal Cancer
[14] = tested on: EKVX; assay: NCI human tumor cell panel: EKVX (Non-Small Cell Lung Cancer); format: cell-based; details: Non-Small Cell Lung Cancer
[15] = tested on: T-47D; assay: NCI human tumor cell panel: T-47D (Breast Cancer); format: cell-based; details: T47D, Breast Cancer
[16] = tested on: HCT-116; assay: NCI human tumor cell panel: HCT-116 (Colon Cancer); format: cell-based; details: HCT-116, Colon Cancer
[17] = tested on: MALME-3M; assay: NCI human tumor cell panel: MALME-3M (Melanoma); format: cell-based; details: MALME-3M, Melanoma
[18] = tested on: TK-10; assay: NCI human tumor cell panel: TK-10 (Renal Cancer); format: cell-based; details: TK-10, Renal Cancer
[19] = tested on: HL-60(TB); assay: NCI human tumor cell panel: HL-60(TB) (Leukemia); format: cell-based; details: Leukemia, read-out: Log10 GI50 (converted)
[20] = tested on: HCC-2998; assay: NCI human tumor cell panel: HCC-2998 (Colon Cancer); format: cell-based; details: HCC-2998, Colon Cancer
[21] = tested on: MDA-MB-231/ATCC; assay: NCI human tumor cell panel: MDA-MB-231/ATCC (Breast Cancer); format: cell-based; details: Homo sapiens, MDA-MB-231, MDA-MB-231/ATCC, Breast Cancer
[22] = tested on: CAKI-1; assay: NCI human tumor cell panel: CAKI-1 (Renal Cancer); format: cell-based; details: CAKI-1, Renal Cancer
[23] = tested on: MOLT-4; assay: NCI human tumor cell panel: MOLT-4 (Leukemia); format: cell-based; details: MOLT-4, Leukemia
[24] = tested on: U251; assay: NCI human tumor cell panel: U251 (CNS Cancer); format: cell-based; details: U-251, U251, CNS Cancer
[25] = tested on: K-562; assay: NCI human tumor cell panel: K-562 (Leukemia); format: cell-based; details: K562, K-562, Leukemia
[26] = tested on: A549/ATCC; assay: NCI human tumor cell panel: A549/ATCC (Non-Small Cell Lung Cancer); format: cell-based; details: Non-Small Cell Lung Cancer
[27] = tested on: COLO 205; assay: NCI human tumor cell panel: COLO 205 (Colon Cancer); format: cell-based; details: COLO 205, Colon Cancer
[28] = tested on: NCI-H226; assay: NCI human tumor cell panel: NCI-H226 (Non-Small Cell Lung Cancer); format: cell-based; details: NCI-H226, Non-Small Cell Lung Cancer
[29] = read-out: Log10 GI50 (converted)
[30] = read-out: Log10 TGI (converted)

Structure (SMILES): O=Cc1ccc(-c2ccc(-c3ccc(C=O)s3)[se]2)s1 [NSC 675345]
- GI50 [1, 29]: 55 µM
- IC (TGI) [1, 30]: > 100 µM
- GI50 [2, 29]: 2190 nM
- IC (TGI) [2, 30]: > 100 µM
- GI50 ([3]; NCI-H522, read-out: Log10 GI50 (converted)): 85.1 µM
- IC (TGI) ([3]; NCI-H522, read-out: Log10 TGI): > 100 µM
- GI50 [4, 29]: > 100 µM
- IC (TGI) [4, 30]: > 100 µM
- GI50 [5, 29]: > 100 µM
- IC (TGI) [5, 30]: > 100 µM
- GI50 [6, 29]: > 100 µM
- IC (TGI) [6, 30]: > 100 µM
- GI50 [7, 29]: > 100 µM
- IC (TGI) [7, 30]: > 100 µM
- GI50 [8, 29]: 77.6 µM
- IC (TGI) [8, 30]: > 100 µM
- GI50 [9, 29]: > 100 µM
- IC (TGI) [9, 30]: > 100 µM
- GI50 [10, 29]: 31.6 µM
- IC (TGI) [10, 30]: > 100 µM
- GI50 [11, 29]: > 100 µM
- IC (TGI) [11, 30]: > 100 µM
- GI50 [12, 29]: > 100 µM
- IC (TGI) [12, 30]: > 100 µM
- GI50 [13, 29]: > 100 µM
- IC (TGI) [13, 30]: > 100 µM
- GI50 [14, 29]: > 100 µM
- IC (TGI) [14, 30]: > 100 µM
- GI50 [15, 29]: 79.4 µM
- IC (TGI) [15, 30]: > 100 µM
- GI50 [16, 29]: 4.07 µM
- IC (TGI) [16, 30]: > 100 µM
- GI50 [17, 29]: > 100 µM
- IC (TGI) [17, 30]: > 100 µM
- GI50 [18, 29]: > 100 µM
- IC (TGI) [18, 30]: > 100 µM
- GI50 [19]: > 100 µM
- GI50 [20, 29]: 2340 nM
- IC (TGI) [20, 30]: 6.92 µM
- GI50 [21, 29]: 18.2 µM
- IC (TGI) [21, 30]: > 100 µM
- GI50 [22, 29]: 32.4 µM
- IC (TGI) [22, 30]: > 100 µM
- GI50 [23, 29]: > 100 µM
- IC (TGI) [23, 30]: > 100 µM
- GI50 [24, 29]: 2290 nM
- IC (TGI) [24, 30]: 21.4 µM
- GI50 [25, 29]: 30.9 µM
- IC (TGI) [25, 30]: > 100 µM
- GI50 [26, 29]: > 100 µM
- IC (TGI) [26, 30]: > 100 µM
- GI50 [27, 29]: 33.9 µM
- IC (TGI) [27, 30]: > 100 µM
- GI50 [28, 29]: 575 nM
- IC (TGI) [28, 30]: 2.45 µM
